Measurements from paper PMC11109252, “Synthetic aporphine alkaloids are potential therapeutics for Leigh syndrome” (Scientific Reports, 2024).
pEC50: −log10 of the molar value. Entries after “also recorded” stand apart in the source; their conditions may differ.

Experiments:
[1] = tested on: LS patient-derived skin fibroblasts; test: Mitochondrial ATP production capacity (extracellular flux analyzer, OCR); type: cell-based, human; details: 100 nM compound
Description: The extracellular flux analyzer Seahorse XFe96 (Agilent Technologies, Santa Clara, CA, USA) was used to evaluate the mitochondrial function. The extracellular flux analyzer measures the oxygen consumption rate (OCR) in the mitochondria during ATP synthesis and can also evaluate the intracellular mitochondrial function. The endpoints were the basal OCR, ATP-linked OCR, maximal OCR, and spare capacity, which are key indicators of the mitochondrial function in assays using living cells. Each indicator was calculated by continuously adding ATP synthase inhibitors (oligomycin, rotenone and antimycin A) and deconjugating agents (carbonyl cyanide-p-trifluoromethoxyphenylhydrazone [FCCP]) during the measurement (Fig. 6). […] The OCR was measured over time by adding oligomycin (2 μM concentration) 20 min after drug addition, FCCP (2 μM concentration) 50 min later, and rotenone and antimycin A (0.5 μM concentration) 80 min later.

[2] = tested on: LS patient-derived skin fibroblasts; details: cited from earlier work
[3] = cited from earlier work
[4] = tested on: GDF-15; details: cited from earlier work
[5] = tested on: GDF-15; test: GDF-15 levels in the cell supernatant (ELISA); type: cell-based, human; details: 24 h after co-administration with RSL3, compared to RSL3-only
Experimental: GDF-15 is a biomarker that is elevated in the blood of patients with mitochondrial diseases and is used for the diagnosis of mitochondrial diseases and determination of therapeutic efficacy[26],[36]. […] As previously reported, GDF-15 levels were measured by an enzyme-linked immuno sorbent assay (ELISA) using the Quantikin Human GDF-15 ELISA Kit (R&D Systems, Minneapolis, MN, USA). Samples were obtained from anti-RSL3-induced cell death assays with candidate compounds (D31, D55, and D40), and cell supernatants 24 h after reagent addition were used for the assay. Measured values were calculated with reference to internal standards and compared to GDF-15 values.

[6] = tested on: LS patient-derived skin fibroblasts; test: Anti-RSL3-induced cell death activity assay; type: cell-based; details: Homo sapiens, Skin fibroblast, 24 h, read-out: Anti-RSL3-induced cell death effect EC50
Experimental: RSL3 is a glutathione peroxidase 4 (GPx4) inhibitor that specifically induces ferroptosis. Ferroptosis is an iron-dependent non-apoptotic type of cell death caused by lipid peroxidation.
After 24 h of incubation, the reagents were added to the RSL3 (−) derivative (−) and RSL3 ( +) derivative ( +) groups. […] The final concentration of RSL3 was 50–200 nM that would cause approximately 80–90% cell death after 24 h of incubation. The percentage of viable cells was measured 24 h after addition of each reagent.

[7] = tested on: LS patient-derived skin fibroblasts; test: Anti-BSO-induced cell death activity assay; details: for pEC50: viable cells 48 h after addition

For `CN1CCc2cccc3c2[C@H]1Cc1ccc(O)c(O)c1-3` [Apo, (9R)-10-methyl-10-azatetracyclo[7.7.1.0²,⁷.0¹³,¹⁷]heptadeca-1(17),2,4,6,13,15-hexaene-3,4-diol], the “Enhancement of mitochondrial ATP production” value (“Enhancement” below) [1] is listed as “No significant enhancement”, the “ATP production in LS patient-derived skin fibroblasts” value [2] is listed as “increase ATP production” and the “Concentrations in the brain versus plasma” value [3] is listed as “up to three-fold higher”. For the same compound, the “GDF-15 elevation in culture supernatant” value [4] was “inhibits GDF-15 elevation” and the “GDF-15 elevation in cell supernatant” value [5] was “significant decrease”.

With `COc1ccc2c(c1O)-c1cccc3c1[C@@H](C2)N(C)CC3` [D31, (9R)-4-methoxy-10-methyl-10-azatetracyclo[7.7.1.0²,⁷.0¹³,¹⁷]heptadeca-1(17),2,4,6,13,15-hexaen-3-ol] the pEC50 [6] was 7.57, the “Enhancement” value [1] was “showed any ability to enhance mitochondrial ATP production; also recorded: No significant enhancement” and the “Anti-BSO cell death effect retained (same as apomorphine)” value ([7]; comparison of D29, D30, D31) was “retained its anti-BSO cell death effect; also recorded: the only compound with the same anti-BSO-induced cell death activity as apomorphine”. The “GDF-15 elevation in cell supernatant” value [5] was “suppressed GDF-15 elevation; also recorded: significant decrease”.

For `CCCOc1ccc2c(c1O)-c1cccc3c1[C@@H](C2)N(C)CC3` [D40, (9R)-10-methyl-4-propoxy-10-azatetracyclo[7.7.1.0²,⁷.0¹³,¹⁷]heptadeca-1(17),2,4,6,13,15-hexaen-3-ol], the pEC50 [6] was 6.64, the “Enhancement” value [1] was “showed any ability to enhance mitochondrial ATP production; also recorded: No significant enhancement” and the pEC50 ([7]; Homo sapiens, Skin fibroblast, 48 h, read-out: Anti-BSO-induced cell death effect EC50, co-added with BSO at a concentration giving 10%-20% cell viability) was > 7.00. The pEC50 ([7]; read-out: Anti-BSO-induced cell death effect EC50, co-added with BSO at a concentration giving 10%-20% cell viability) was 7.26 and the “GDF-15 elevation in cell supernatant” value [5] was “suppressed GDF-15 elevation; also recorded: significant decrease”.
